Measurements taken from patent US20070249620A1, “Urea Derivative” (priority 2004, published 2007).

Columns and labels:
mouse DGAT1 = target: T1, mouse DGAT1 (Mus musculus, UniProt Q9Z2A7); test: DGAT1 inhibitory effect test (microsome fraction, [14C]-oleoyl-CoA, triglyceride radioactivity by TLC); type: biochemical; conditions: 0.5 h; concentration of the test compound 0.1 μg/ml; mouse DGAT1 microsomes, 23° C., 30 minutes; read-out: Inhibitory ratio
T1 construct: made in house; host or cells: insect cells (High Five, Sf9, Sf21, etc.), baculovirus expression system (Invitrogen)
T1 sequence (Q9Z2A7 1-498): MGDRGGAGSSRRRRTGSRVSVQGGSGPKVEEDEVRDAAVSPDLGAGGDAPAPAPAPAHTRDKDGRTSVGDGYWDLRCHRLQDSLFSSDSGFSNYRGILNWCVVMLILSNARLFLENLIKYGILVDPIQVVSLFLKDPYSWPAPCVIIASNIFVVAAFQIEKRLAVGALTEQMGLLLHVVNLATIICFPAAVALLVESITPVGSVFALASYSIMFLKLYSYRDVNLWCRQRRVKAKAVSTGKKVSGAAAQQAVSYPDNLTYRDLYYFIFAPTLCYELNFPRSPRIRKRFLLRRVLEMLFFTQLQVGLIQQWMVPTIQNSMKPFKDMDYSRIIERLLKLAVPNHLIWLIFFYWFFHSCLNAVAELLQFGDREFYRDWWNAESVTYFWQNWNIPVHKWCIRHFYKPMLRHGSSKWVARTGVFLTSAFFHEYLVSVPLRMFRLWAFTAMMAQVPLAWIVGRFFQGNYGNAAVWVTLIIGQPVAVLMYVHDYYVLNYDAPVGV
Procedure, shortened: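 Baculovirus-expressed mouse DGAT1 insect-cell microsomes (10 μg) were incubated 30 min at 23 °C, pH 8.0, with 0.5 mM 1,2-dioleoyl-sn-glycerol, 30 μM [14C]-oleoyl-CoA and 0.5% Triton X-100. [14C]-triglyceride was quantified after heptane extraction and TLC. Percent inhibition was taken against vehicle control, with 0-min background subtracted.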

Row | inhibition at 0.1 µg/mL (mouse DGAT1) [%] | melting point [°C] | SMILES
1 | ≥ 50 | 95 to 98 | COc1ccc(C)cc1NC(=O)Nc1ccc2c(c1)CCN(C(=O)Oc1ccc(CCO)cc1Cl)C2 [Example 396, 6-[3-(2-methoxy-5-methyl-phenyl)-ureido]-3,4-dihydro-1H-isoquinoline-2-carboxylic acid 2-chloro-4-(2-hydroxy-ethyl)-phenyl ester]
2 | ≥ 50 | 196 to 198 | COc1ccc(C)cc1NC(=O)Nc1ccc2c(c1)CCN(C(=O)Oc1ccc(C(=O)O)cc1Cl)C2 [Example 397, 6-[3-(2-methoxy-5-methyl-phenyl)-ureido]-3,4-dihydro-1H-isoquinoline-2-carboxylic acid 4-carboxy-2-chloro-phenyl ester]
